Results as given in paper PMC6597546, “Identification of a potent benzoxaborole drug candidate for treating cryptosporidiosis” (Nature Communications, 2019).
Values joined by “and” are separate entries in the source; they are usually repeats but may differ in a detail not shown here. Equal values may be shown once.

Tested on: C. parvum (Bunch Grass Farms Iowa isolate)
Test: Neonatal calf model of cryptosporidiosis
Assay type: in vivo
Design: key to Oocyst Shedding, individual calves / Oocyst Shedding: C. parvum abundance per gram of fecal dry matter (qPCR); key to Fecal Consistency Score, individual calves / Fecal Consistency Score: score 1 = normal, 3 = severely abnormal
Conditions: for Fecal Consistency Score / Oocyst Shedding: 10 mg/kg every 12 h with delayed start
Description: All calf efficacy studies were performed as previously described. These studies were approved by the University of Vermont Institutional animal Care and Use Committee, and conducted in compliance with the USDA-APHIS “Blue Book”, available at www.aphis.usda.gov/animal-welfare. Holstein bull calves were acquired at birth from Green Mountain Dairy (Sheldon, VT), given synthetic colostrum with 200 g of IgG (Land O’Lakes, Ardent Hills, MO) and bovine coronavirus and Escherichia coli antibodies (First Defense Bolus, Immuncell Corporation, Portland, ME) within 2 h of birth, and transported to UVM. Calves were group-housed initially, and infected at 24–48 h of age during an interruption in bottle feeding by oral administration of ∼5 × 10^7 C. parvum Iowa isolate oocysts (Bunch Grass Farms, Deary, ID) suspended in 10 mL of water. They were then moved to individual raised pens, and observed twice daily at feeding times for clinical signs, which were quantified according to a previously described standardized scoring rubric. Data on fecal consistency, dehydration and overall health were collected, in each case with a score of 1 being normal and 3 being severely abnormal (scoring rubric in Supplementary Table 2). Clinical microbiologic studies for adventitious infectious agents including Salmonella culture, aerobic bacterial culture with E. coli genotyping, rotavirus, and coronavirus testing were performed on all calves at the onset of diarrhea by the Cornell Animal Health Diagnostic Center (Ithaca, NY). Animals with severe diarrhea or other symptoms were supported aggressively, including with administration of oral electrolytes, intravenous fluids and flunixin meglumine (Banamine, Merck) as needed. […] Daily fecal samples were obtained from collections bins located under each pen. Fecal samples used for parasite quantification were dried at 90 °C until stable in weight, and C. parvum abundance per gram of fecal dry matter was measured using qPCR and the primers Cp18s forward and Cp18s reverse.

CC1(C)OB(O)c2cc(NC(=O)c3ccc(-n4cccn4)cc3Cl)ccc21 [AN7973]
Fecal Consistency Score (Calf 1, Day 2): 1.67
Oocyst Shedding (Calf 1, Day 2): 4028
Fecal Consistency Score (Calf 1, Day 3): 2
Oocyst Shedding (Calf 1, Day 3): 3180923
Fecal Consistency Score (Calf 1, Day 4): 2.33
Oocyst Shedding (Calf 1, Day 4): 4800342
Fecal Consistency Score (Calf 1, Day 5): 1.5
Oocyst Shedding (Calf 1, Day 5): 120115
Fecal Consistency Score (Calf 1, Day 6): 1
Oocyst Shedding (Calf 1, Day 6): 5946
Fecal Consistency Score (Calf 1, Day 7): 1
Oocyst Shedding (Calf 1, Day 7): 4811
Fecal Consistency Score (Calf 1, Day 8): 1
Oocyst Shedding (Calf 1, Day 8): 154
Fecal Consistency Score (Calf 1, Day 9): 1
Oocyst Shedding (Calf 1, Day 9): 1
Fecal Consistency Score (Calf 1, Day 10): 1
Oocyst Shedding (Calf 1, Day 10): 1
Fecal Consistency Score (Calf 1, Day 11): 1
Oocyst Shedding (Calf 1, Day 11): 164
Fecal Consistency Score (Calf 1, Day 12): 1
Oocyst Shedding (Calf 1, Day 12): 1032
Fecal Consistency Score (Calf 1, Day 13): 1
Oocyst Shedding (Calf 1, Day 13): 1
Fecal Consistency Score (Calf 1, Day 14): 1
Oocyst Shedding (Calf 1, Day 14): 1
Fecal Consistency Score (Calf 2, Day 0): 1
Oocyst Shedding (Calf 2, Day 0): 1
Fecal Consistency Score (Calf 2, Day 1): 3
Oocyst Shedding (Calf 2, Day 1): 15983
Fecal Consistency Score (Calf 2, Day 2): 2
Oocyst Shedding (Calf 2, Day 2): 572309
Fecal Consistency Score (Calf 2, Day 3): 2.67
Oocyst Shedding (Calf 2, Day 3): 9928800
Fecal Consistency Score (Calf 2, Day 4): 3
Oocyst Shedding (Calf 2, Day 4): 10753010
Fecal Consistency Score (Calf 2, Day 5): 2.33
Oocyst Shedding (Calf 2, Day 5): 89411
Fecal Consistency Score (Calf 2, Day 6): 1
Oocyst Shedding (Calf 2, Day 6): 36783
Fecal Consistency Score (Calf 2, Day 7): 1
Oocyst Shedding (Calf 2, Day 7): 6676
Fecal Consistency Score (Calf 2, Day 8): 1
Oocyst Shedding (Calf 2, Day 8): 2648
Fecal Consistency Score (Calf 2, Day 9): 1
Oocyst Shedding (Calf 2, Day 9): 2147
Fecal Consistency Score (Calf 2, Day 10): 1
Oocyst Shedding (Calf 2, Day 10): 401
Fecal Consistency Score (Calf 2, Day 11): 1
Oocyst Shedding (Calf 2, Day 11): 10
Fecal Consistency Score (Calf 2, Day 12): 1
Oocyst Shedding (Calf 2, Day 12): 1
Fecal Consistency Score (Calf 2, Day 13): 1
Oocyst Shedding (Calf 2, Day 13): 1
Fecal Consistency Score (Calf 2, Day 14): 1
Oocyst Shedding (Calf 2, Day 14): 1
Fecal Consistency Score (Calf 3, Day 0): 1
Oocyst Shedding (Calf 3, Day 0): 1
Fecal Consistency Score (Calf 3, Day 1): 3
Oocyst Shedding (Calf 3, Day 1): 4675
Fecal Consistency Score (Calf 3, Day 2): 2.33
Oocyst Shedding (Calf 3, Day 2): 376713
Fecal Consistency Score (Calf 3, Day 3): 2.5
Oocyst Shedding (Calf 3, Day 3): 3074178
Fecal Consistency Score (Calf 3, Day 4): 3
Oocyst Shedding (Calf 3, Day 4): 1097033
Fecal Consistency Score (Calf 3, Day 5): 2.33
Oocyst Shedding (Calf 3, Day 5): 172967
Fecal Consistency Score (Calf 3, Day 6): 1.5
Oocyst Shedding (Calf 3, Day 6): 10727
Fecal Consistency Score (Calf 3, Day 7): 1
Oocyst Shedding (Calf 3, Day 7): 1
Fecal Consistency Score (Calf 3, Day 8): 1
Oocyst Shedding (Calf 3, Day 8): 363
Fecal Consistency Score (Calf 3, Day 9): 1
Oocyst Shedding (Calf 3, Day 9): 1134
Fecal Consistency Score (Calf 3, Day 10): 1
Oocyst Shedding (Calf 3, Day 10): 624
Fecal Consistency Score (Calf 3, Day 11): 1
Oocyst Shedding (Calf 3, Day 11): 1
Fecal Consistency Score (Calf 3, Day 12): 1
Oocyst Shedding (Calf 3, Day 12): 1
Fecal Consistency Score (Calf 3, Day 13): 1
Oocyst Shedding (Calf 3, Day 13): 28
Fecal Consistency Score (Calf 3, Day 14): 1
Oocyst Shedding (Calf 3, Day 14): 1
Oocyst Shedding, individual calves (10 mg/kg every 24 h on days 2–8, Day 0): 100 and 331 and 774
Oocyst Shedding, individual calves (10 mg/kg every 24 h on days 2–8, Day 1): 6698 and 100 (2×)
Oocyst Shedding, individual calves (10 mg/kg every 24 h on days 2–8, Day 3): 644594 and 196913 and 724661
Oocyst Shedding, individual calves (10 mg/kg every 24 h on days 2–8, Day 4): 119580 and 31776 and 1355
Oocyst Shedding, individual calves (10 mg/kg every 24 h on days 2–8, Day 5): 573 and 17468 and 8981
Oocyst Shedding, individual calves (10 mg/kg every 24 h on days 2–8, Day 7): 67293 and 6611 and 7598
Oocyst Shedding, individual calves (10 mg/kg every 24 h on days 2–8, Day 9): 54864 and 100 and 1163
Oocyst Shedding, individual calves (10 mg/kg every 24 h on days 2–8, Day 10): 139951 and 100 and 1010
reduction of total burden of fecal C. parvum shedding (AUC) (bovine, in vivo): over 90%
reduction of fecal C. parvum shedding rate (first three days of treatment): nearly five logs
Fecal Consistency Score, individual calves (scale 1 normal to 3 severely abnormal, 5 mg/kg every 12 h on days 2–8, Day 0): 1
Fecal Consistency Score, individual calves (scale 1–3, 5 mg/kg every 12 h on days 2–8, Day 1): 1
Fecal Consistency Score, individual calves (scale 1–3, 5 mg/kg every 12 h on days 2–8, Day 2): 1
Fecal Consistency Score, individual calves (scale 1–3, 5 mg/kg every 12 h on days 2–8, Day 3): 1
Fecal Consistency Score, individual calves (scale 1–3, 5 mg/kg every 12 h on days 2–8, Day 4): 1
Fecal Consistency Score, individual calves (scale 1–3, 5 mg/kg every 12 h on days 2–8, Day 5): 1
Fecal Consistency Score, individual calves (scale 1–3, 5 mg/kg every 12 h on days 2–8, Day 6): 1
Fecal Consistency Score, individual calves (scale 1–3, 5 mg/kg every 12 h on days 2–8, Day 7): 1
Fecal Consistency Score, individual calves (scale 1–3, 5 mg/kg every 12 h on days 2–8, Day 8): 1
Fecal Consistency Score, individual calves (scale 1–3, 5 mg/kg every 12 h on days 2–8, Day 9): 1
Fecal Consistency Score, individual calves (scale 1–3, 5 mg/kg every 12 h on days 2–8, Day 10): 1
Fecal Consistency Score, individual calves (scale 1–3, 10 mg/kg every 24 h on days 2–8, Day 0): 1
Fecal Consistency Score, individual calves (scale 1–3, 10 mg/kg every 24 h on days 2–8, Day 1): 1
Fecal Consistency Score, individual calves (scale 1–3, 10 mg/kg every 24 h on days 2–8, Day 2, 10 mg/kg): 1.33 (2×) and 2.67
Fecal Consistency Score, individual calves (scale 1–3, 10 mg/kg every 24 h on days 2–8, Day 3, 10 mg/kg): 2 (2×) and 2.33
Fecal Consistency Score, individual calves (scale 1–3, 10 mg/kg every 24 h on days 2–8, Day 4, 10 mg/kg): 2.33 and 1.33 (2×)
Fecal Consistency Score, individual calves (scale 1–3, 10 mg/kg every 24 h on days 2–8, Day 5): 1
Fecal Consistency Score, individual calves (scale 1–3, 10 mg/kg every 24 h on days 2–8, Day 6): 1
Fecal Consistency Score, individual calves (scale 1–3, 10 mg/kg every 24 h on days 2–8, Day 7): 1
Fecal Consistency Score, individual calves (scale 1–3, 10 mg/kg every 24 h on days 2–8, Day 8): 1
Fecal Consistency Score, individual calves (scale 1–3, 10 mg/kg every 24 h on days 2–8, Day 9): 1
Fecal Consistency Score, individual calves (scale 1–3, 10 mg/kg every 24 h on days 2–8, Day 10): 1
effect on dehydration (several of the treatment regimens): significantly reduced the overall severity of dehydration
tolerability in calves (twice daily assessment of alertness, interaction, appetite): tolerated AN7973 well
